`Brc1ccc(Cc2cc(Br)c(Cc3ccc(Br)cc3)cc2Br)cc1`: the melting point – broadly, the temperature of the solid-liquid transition – is 161 to 167 °C.

The compound `CSC1=NC=CC(NN)(SC)N1` (centres undefined) came in with a melting point of 120 to 125 °C. Next, `O=C(O)C1Oc2cc(Cl)c(S(=O)(=O)c3cccc(F)c3)cc2O1` (centres undefined): 161 to 163 °C; `CCc1ccc2c(n1)C(C(N)=S)CCC2` (centres undefined): 73 to 75 °C. `O=Cc1c(Br)ccc2cc3c(cc12)OCO3` returned a melting point of 165 to 166 °C.

With `Cc1ccc(C(=O)c2ccc(Cc3c(Cl)cc(N)cc3Cl)cc2)cn1`, the melting point fell in the range of 153 to 155 °C. In the case of `COc1cc2ncc(C#N)c(Cl)c2cc1OC`, the melting point is 220 to 223 °C. In the case of `Clc1ccc(-c2nnc(NCCN3CCCCC3)c(Cc3ccccc3)n2)cc1`, the melting point stood at 196 °C. For `C=Cc1cc(C=Cc2cc(C(C)(C)C)cc(C(C)(C)C)c2)cc(C=Cc2cc(C(C)(C)C)cc(C(C)(C)C)c2)c1`, the melting point is 143 to 145 °C. In the case of `CCc1cc(OCCCN(C)Cc2ccc(OC)c(OC)c2)ccc1NC(=O)c1cccc2c(=O)c3cccc(F)c3[nH]c12` it was 146 °C. Regarding `C#CCON=C(C(C)=NOCc1ccccc1C(=COC)C(=O)OC)c1ccc(F)cc1`, the melting point lay within 91 to 93 °C.

In turn, `CC(CCCc1ccccc1)c1cc2c(cc1O)C1C(=O)CCCC1C(C)(C)O2` (centres undefined) displayed a melting point of 108 to 115 °C. `CCOC(=O)C(=O)c1csc(NC(=S)Nc2ccccc2F)n1`: the melting point lay in the range of 192 to 193 °C. The compound `CC1Cc2cc(Cl)ccc2C(c2ccc([N+](=O)[O-])cc2)=NN1` (centres undefined) yielded a melting point of 152 to 154 °C. In the case of `CCOC(=O)c1cn2c(n1)CNc1ccccc1-2`, the melting point was in the range of 206 to 208 °C.

Regarding `CCOC(=O)c1ncoc1-c1cc(OC)c(OC)c([N+](=O)[O-])c1`, the melting point was in the range of 109 to 110 °C. In the case of `O=C(Nc1ccc(Cl)cc1)C1=C(N2CCCC2)CS(=O)(=O)N(Cc2ccc(Cl)cc2)c2ccccc21` it was 190 to 194 °C; in that of `COc1ccc(CSCC(C)C(=O)O)cc1` (centres undefined), 74 to 82 °C; in that of `O=C(C=Cc1ccc(Oc2ccccc2)cc1)c1ccc(F)cc1`, 116 °C. `CC(C)CC(=O)Nc1c(C(=O)c2cccc(Cl)c2)[nH]c2cc(Cl)ccc12` gave a melting point of 185 to 186 °C. Turning to `CCNS(=O)(=O)/C=C/C1=C(C)NC(C)=C(C(=O)OC(C)C)C1c1cccc([N+](=O)[O-])c1` (centres undefined), the melting point is 187 to 189 °C.

`Cc1ccc(C(=O)c2cc(-c3ccncc3)c(N3CCOCC3)s2)cc1` came in with a melting point of 144 to 145 °C. In the case of `CC(C)C(=O)N1CCNC1=Nc1ccc(Cl)cc1Cl`, the melting point fell in the range of 147 to 148 °C. In the case of `Cc1nc(N)nc(-c2cccc3ccccc23)c1C` it was 214 to 215 °C. Take `CCOC(=O)Nc1ccc(C(=O)OCC)nc1`: the melting point lay within 177 to 178 °C. Next, `CCOC(=O)N1CC(C)(C)CSC1=Nc1ccccc1C(C)C`: 84 to 86 °C; `O=C(Cl)c1ccc(NC(=O)c2ccccc2-c2ccccc2)cc1`: 118 to 120 °C; `COc1ccccc1Oc1c(NS(=O)(=O)c2ccc(C)cn2)nc(-c2cccc(O)c2)nc1OC`: 211 to 216 °C. Compound `CS(=O)(=O)c1cccc(S(N)(=O)=O)c1` showed a melting point of 99.5 to 101 °C. On to `CONc1nc(-c2ccccc2)c2cc(Cl)ccc2n1`, for which the melting point came to 174 °C.

`O=[N+]([O-])c1cc2ccccc2c2nccnc12` showed a melting point of 163 to 165 °C. Compound `COC(=O)CCc1ccc(-n2c(C)nn(-c3ccc(C#N)cc3)c2=O)cc1` had a melting point of 163 to 164 °C. As for `COc1ccc2cncc(CCl)c2c1`, the melting point is 256 to 257 °C. In turn, `COc1cc(OC)c2c(=O)[nH]c(-c3ccc(O)c(CCO)c3)nc2c1` displayed a melting point of 249 to 250 °C. In the case of `Cc1nc(O)sc1CC(C)Cl` (centres undefined) it was 91 to 93 °C. `COC(=O)CC(Oc1c(Br)cc(-c2c3ccccc3c(Br)c3sc4ccccc4c23)cc1Br)C(=O)OC` (centres undefined) yielded a melting point of 118 to 121 °C. Regarding `Cc1cc(-n2ccnc2)c2cccc(OCc3c(Cl)ccc(S(=O)(=O)N4CCC[C@H]4C(=O)NCC4CCN(CCOCCO)CC4)c3Cl)c2n1`, the melting point amounted to 96 °C. `COC(=O)c1c(NC(C)=O)sc2c1CCCC2`: the melting point was in the range of 103 to 106 °C.

`Cc1ccc(-c2cccc(/C=C/C(=O)Nc3ccc(CO)cc3)c2)cc1` came in with a melting point of 220 to 223 °C. For the compound `CCN1CCc2nc(N3CCN(Cc4ccccc4)CC3)ncc2C1=O`, the melting point fell in the range of 128 to 130 °C. `CCCCCCCCN1CCN(O)C1=O` displayed a melting point of 53.5 to 55.5 °C. The compound `Nc1ccc2c(c1)C=C(C(=O)O)C(C(F)(F)F)O2` (centres undefined) registered a melting point of 126 to 133 °C. Take `CC(C)Cc1cccc(CCCn2c(=O)[nH]c3cc(Cl)cc(Cl)c3c2=O)c1`: the melting point fell in the range of 167 to 172 °C. For `COc1cc(C=Cc2cc(OC)c(OC)c(OC)c2)cc(Br)c1OC`, the melting point was 180 to 182 °C.

With `CCOP(=O)(CN(CCCc1ccccc1)C(=O)Cc1cc(C(C)(C)C)c(O)c(C(C)(C)C)c1)OCC`, the melting point was 134 to 136 °C.

With `COc1cc2c(cc1C)OC1(CC2(C)C)CC(C)(C)c2cc(OCC(=O)O)c(C)cc2O1` (centres undefined), the melting point is 195 to 197 °C. Turning to `CC(=O)OC1CSC(Oc2c(C#N)ccnc2C)C(OC(C)=O)C1OC(C)=O` (centres undefined), the melting point lay in the range of 109 to 113 °C. For the compound `NC(CCCCNC(=O)OCc1ccccc1)C(=O)N(Cc1ccccc1)Cc1ccccc1` (centres undefined), the melting point is 135 to 136 °C. Next, `COc1ccc(C=CC(=O)c2cccc(OCCCCBr)c2)cc1`: 91 to 92 °C.

In turn, `Cc1cc(C(C)(C)C)cc(C)c1C1C(=O)CC(C)(C)CC1=O` came in with a melting point of 224 to 249 °C.

Take `CC(C)Cn1c(COc2ccccc2)nc2c(N)nc3ccccc3c21`: the melting point was 196 to 197 °C. Consider `CC(=NO)c1csc(S(N)(=O)=O)c1`, for which the melting point was 185 to 188 °C. The compound `CN(C)CC#CCNC(=O)C(O)(c1ccccc1)C1CCCCC1` (single isomer, unassigned; (-)) showed a melting point of 120 to 121 °C. Compound `Nc1ncnc2c1nc(COCP(=O)(O)O)n2CCC1CCCCC1` displayed a melting point greater than 250 °C.

Compound `CCc1ccc([N+](=O)[O-])cc1COC` returned a melting point of 21.5 to 23.5 °C. With `CCCCCCCCCCCCc1nnn(C(C(=O)Nc2c(C(C)C)cccc2C(C)C)c2ccccc2)n1` (centres undefined), the melting point was 93 to 95 °C. In turn, `N#Cc1ccc(F)c(C(c2cc(N)ncc2Cl)S(=O)(=O)c2ccc(Cl)cc2)c1` (centres undefined) registered a melting point greater than 220 °C. The compound `CCN1CCN(C(=O)NC(C(=O)NC2C(=O)N(OCc3ccccc3)C2C)c2ccccc2)C(=O)C1=O` (centres undefined) had a melting point of 100 to 105 °C.

On to `CC1(C)C2CC[C@@]1(N1CCCCC1)C(=O)C2`, for which the melting point is 78 to 79 °C. In the case of `CSCC(=O)N=C(SC)N(C)N=Cc1ccccc1`, the melting point lay within 68 to 70 °C. In the case of `O=C(CN1CCSCC1)N1CCC(C2c3ccc(Cl)c(Br)c3CCc3cc(Br)cnc32)CC1` (centres undefined) it was 172 to 174 °C; in that of `CN(C)C(=O)Nc1ccc(Cl)c(N)n1`, 139 to 141 °C; in that of `CCOC(=O)c1ncn2c1c(Cl)nc1ccccc12`, 128 to 130 °C. In the case of `c1ccc(-c2nc(SCCCSCCCSc3nc(-c4ccccc4)c(-c4ccccc4)[nH]3)[nH]c2-c2ccccc2)cc1` it was 208 to 209 °C. `O=C1N=c2cc(Cl)c(Cl)cc2=NC1=O` had a melting point greater than 400 °C. On to `Cc1ccccc1C(=O)c1nc[nH]c1C`, for which the melting point fell in the range of 165 to 166 °C.

For the compound `COC(=O)CC[C@H]1C(=O)N(c2ccc(F)cc2)[C@@H]1c1ccc(O)cc1`, the melting point is 136 to 137 °C. `CC(=O)SCC(CC(C)C)C(=O)NCC(=O)O` (centres undefined) returned a melting point of 120 to 121 °C.

Compound `Cc1nc(C(=O)COc2ccc(CC3SC(=O)NC3=O)cc2)c(C)o1` (centres undefined) yielded a melting point of 161 to 162 °C. The compound `CC1N=C(N(C)N)NN=C1c1ccccc1` (centres undefined) registered a melting point of 140 to 141 °C. For `CCOC(=O)C(C)(C(C)=O)c1ccc([N+](=O)[O-])c(NC)c1C#N` (centres undefined), the melting point is 87 to 91 °C. Turning to `O=C1N(Cc2nnc(Cl)s2)c2ccccc2C12COc1cc3c(cc12)OCO3` (centres undefined), the melting point is 194 to 197 °C. For the compound `CCOC(=O)c1ccc(-c2ccc3c(c2)C(Nc2ccc(Cl)cc2)CC(C)N3C(C)=O)cc1` (centres undefined), the melting point is 114 °C. Turning to `CN1CCC23CCCCC2C1Cc1ccc(Oc2nc(-c4ccccc4)nc4ccccc24)cc13` (single isomer, unassigned; (+)), the melting point lay in the range of 138 to 139 °C. In turn, `O=c1cc(-c2ccccc2)cc2n1CCN2` came in with a melting point of 198 to 200 °C. `CCCn1nc(-c2cnc(N)nc2-c2ccccc2)ccc1=O` registered a melting point of 188 to 189 °C. Turning to `CCC(=O)OCc1c2ccccc2cc2ccccc12`, the melting point lay within 79 to 80 °C. Next, `CCOC1CC(n2cc(C(F)(F)F)c(=O)[nH]c2=O)OC1CO` (centres undefined): 183 to 184 °C.

Compound `CSc1ccc(N2CCc3ccccc32)c([N+](=O)[O-])c1` yielded a melting point of 67 to 69 °C. On to `NCCc1cc(F)cc(C(F)(F)F)c1`, for which the melting point is greater than 170 °C. Take `Nc1cccc2c(=O)[nH]ccc12`: the melting point lay within 258 to 259 °C.

Consider `CCCN1N=C2C(=Cc3ccccc3)CS(=O)(=O)CC2C1c1ccccc1` (centres undefined), for which the melting point fell in the range of 197 to 199 °C. For `CCCCc1nc2c(N)nc3cccnc3c2n1CCCC(C)=NOC`, the melting point fell in the range of 132 to 134 °C. Next, `O=C(O)CCSCC(=O)c1cc2[nH]c(=O)[nH]c2cc1Cl`: 186 to 187 °C; `O=C(O)c1ccc2nc3c(c(=O)n2c1)CCCC3=Cc1ccccc1`: 261 to 263 °C; `NC(N)=NC(=O)Cc1c(-c2ccccc2)csc1-c1ccc(Oc2ccccc2)cc1`: 116 to 118 °C.

`O=C(Cc1c(-c2cccnc2)c2cc(CN3CCN(c4ccccc4)CC3)c(Cl)cc2oc1=O)Nc1ccc(F)cc1C(F)(F)F`: the melting point is 202 to 205 °C. `CCCC(=O)NCCc1c[nH]c2ccc(OCCN3CCCCC3)cc12` came in with a melting point of 113 to 114 °C. Take `COc1cc(NC(=O)N(O)C(C)C)cc(OC)c1OC`: the melting point was in the range of 140 to 141 °C.

The record behind these values is a melting point compilation (Tetko et al.; mined from patent text by program, amines drawn as free bases though some values may be those of a salt).
